Source: patent US10813880B2, “Isotretinoin oral-mucosal formulations and methods for using same” (Skyline Biosciences LLC, priority 2017, dated 2020)

Assays:
[1] = test system: Human gingival keratinocytes; experiment: Cytotoxicity in 2D cultured oral epithelial cells (Cell Titer96 Aqueous One); assay type: cell-based; conditions: seven concentrations 0.3 to 0.00003%, 24 h
Protocol: Human gingival keratinocytes derived from a single donor were cultured at 37° C. with 5% CO2, and 95% humidity in a 96-well plate for cytotoxicity evaluation. Cells were incubated in the presence of seven concentrations of isotretinoin ranging from 0.3 to 0.00003% for 24 h in triplicate. Untreated cells were used as baseline control. Cytotoxicity was evaluated using the Cell Titer96 Aqueous One (Promega, WI, USA) basic test according to manufacturer's instructions using an absorbance of 490 nm for the final colorimetric readings.

[2] = test system: Human oral mucosa 3D models (composed of human gingival keratinocytes); experiment: Irritation testing in 3D cultured oral epithelial cells (MTT); assay type: cell-based; conditions: 4 hr
Protocol: Human oral mucosa 3D models (composed of human gingival keratinocytes) were exposed topically to CCP-042 oral adhesive film (0.1%, 0.2%, and 0.3%) for 4 hr before viability assessment. Cell viability was measured by MTT assay on tissues, in triplicate. 1% Triton X-100 was used as positive control. The reduction of the viability of tissues exposed to formulations as compared to that of PBS-treated negative controls were used to predict the skin irritation potential using European Union (EU) and Globally Harmonized System (GHS) classifications, which define an irritant as a substance that reduces the viability of the exposed tissue to less than 50% of the viability of untreated controls.

CC1=C(/C=C/C(C)=C/C=C/C(C)=C\C(=O)O)C(C)(C)CCC1 [isotretinoin, (2Z,4E,6E,8E)-3,7-dimethyl-9-(2,6,6-trimethylcyclohex-1-en-1-yl)nona-2,4,6,8-tetraenoic acid]
cytotoxicity (inhibition of viability of more than 20% of control) [1]: toxic
toxicity to 3D tissue ([2]; concentration 0.1%): not toxic
toxicity to 3D tissue ([2]; concentration 0.2%): not toxic
